Reference: US9145374B2, “Shikimate pathway inhibitors and the use thereof” (National Tsing Hua University, priority 2013, dated 2015)
In brackets after ≈: the same amount, converted by molar mass. Several values for one entry are separate records, joined by “and”; a condition that tells them apart may be missing. Equal entries are not always repeated.

Experiments:
[1] = target: T1, H. pylori Shikimate Dehydrogenase (HpSDH) (Helicobacter pylori, UniProt P56119); assay: Inhibition activity assay toward HpSDH; format: biochemical; details: for IC50: IC50 toward HpSDH, wild type (26695) HpSDH recombinant protein; for inhibition activity toward HpSDH (in words): preliminary screening concentration 100 μM
T1 construct: made in house; host or cells: E. coli BL21
T1 sequence (P56119 whole entry): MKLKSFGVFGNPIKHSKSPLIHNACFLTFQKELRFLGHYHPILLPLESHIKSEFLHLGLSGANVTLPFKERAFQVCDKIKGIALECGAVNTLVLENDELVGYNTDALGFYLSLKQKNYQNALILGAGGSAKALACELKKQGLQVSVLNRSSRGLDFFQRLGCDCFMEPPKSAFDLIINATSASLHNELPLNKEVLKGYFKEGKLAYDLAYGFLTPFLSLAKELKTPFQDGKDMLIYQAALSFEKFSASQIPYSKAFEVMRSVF
Description: The recombinant HpSDH (aroE) was cloned in pET-28a plasmid and transformed into E. coli strain BL21 as expression host.
Relative HpSDH activity calculations were based on the initial velocity that absorbance at the 5 to 10% of the time when reaction absorbance reached the maximum level. The variable slope of this time interval represented the reaction rate of HpSDH at various concentration of compound and normalized with the negative control HpSDH (without inhibitor) which represented 100% activity.
To evaluate structure activity relationship (SAR), all the synthesized compounds in SDH inhibition activity on wild type HpSDH recombinant protein was evaluated. All the datas of effective compounds were expressed as IC50 value after treated with different compounds. In priminary screening, using 100 μM as priminary screening concentration to evaluate all synthesized compounds.
(§1) The enzymatic activity of HpSDH was measured in the direction of reduction of NADP^+ to NADPH in the present of shikimic acid at 340 nm absorbance and conducted in 96-well plate ELISA reader. The final concentration of shikimic acid and NADP^+ were 2 mM, and the final protein concentration was 100 nM. Shikimic acid was added by injector needle equipped in ELISA reader to ensure the measurements were made at the same time spacing. NADPH would accumulate along with reaction, and the absorbance at 340 nm would be measured in every cycle of HpSDH reaction.

H. pylori [2] = assay: Minimum bactericidal concentration assay (MBC assay) against H. pylori; format: cell-based, Helicobacter pylori; details: for MBC: Helicobacter pylori; for anti-bacterial activity toward H. pylori (in words): wild type (26695) and clinical isolated strains
Experimental: To evaluate the anti-H. pylori activity, the minimum bactericidal concentration (MBC) value of compounds was determined. The MBC value of standard antibiotics, clarithromycine (CLR) and metronidazole (MTZ) were served as the positive control.
Wild type (26695, as reference strain) was cultured on brucella broth agar plate containing 1% IsovialeX (Becton, Dickinson and Company, USA) and 10% sheep blood in microaerophilic environment (5% O2, 10% CO2, and 85% N2), 37° C. Clinical strains (v574, v633, v1086, v1254, v1267, v1354 and v2311) were cultured on brucella broth agar plate containing 1% IsovialeX and 20%-30% sheep blood in microaerophilic environment (5% O2, 10% CO2, and 85% N2), 37° C.
Wild type and selected clinical H. pylori strains was cultured for 24 to 36 hours and measured by Cell density meter, O.D. 680 at 0.87-0.9. H. pylori and selected compounds with serial concentration were mixed in Brucella-broth (BD) with 10% of FBS in 24-well plate, and total volume of each well was 300 μl, cultured under 37° C. with 180 rpm shaking. After incubated for 24 hours, 3 μl of each well was seeding on blood agar plate for another 48 hours culture. […] The final concentration of DMSO in the assay was less than 5% to avoid any effect in the growth of H. pylori at this experiment.

[3] = target: T1, H. pylori Shikimate Dehydrogenase (HpSDH); assay: Enzymatic kinetics of effective compounds toward HpSDH; format: biochemical; details: for inhibition type toward NADP+ / inhibition type toward shikimic acid: HpSDH
Experimental: as §1
To study the inhibition mode of these compounds and inhibition type to shikimic acid and NADP^+, different concentrations of inhibitors and graded concentrations of substrates by activity assay was examined.

H. pylori [4] = assay: Synergistic effect of compound 25a in MBC test against H. pylori; format: cell-based, Helicobacter pylori; details: for MBC: Helicobacter pylori, 24 h, read-out: MBC, single treatment

SMILES	IC50 [1]	inhibition activity toward HpSDH (in words) [1]	MBC (H. pylori [2]; W.T 26695)	MBC (H. pylori [2]; clinical isolated strain v574)	MBC (H. pylori [2]; clinical isolated strain v633)	MBC (H. pylori [2]; clinical isolated strain v1086)	MBC (H. pylori [2]; clinical isolated strain v1254)	MBC (H. pylori [2]; clinical isolated strain v1267)	MBC (H. pylori [2]; clinical isolated strain v1354)	MBC (H. pylori [2]; clinical isolated strain v2311)	MBC value against H. pylori (H. pylori [2]; W.T 26695)	MBC value against H. pylori (H. pylori [2]; clinical isolated strain v633)	Ki [3]	inhibition type toward NADP+ [3]	inhibition type toward shikimic acid [3]	further results
O=C1NC(=O)C(=C/C=C/c2ccccc2)C(=O)N1 [7a]	32.7 µM	more effective inhibitors	–	–	–	–	–	–	–	–	–	–	–	–	–	–
O=C1NC(=O)C(=C/C=C/c2ccc([N+](=O)[O-])cc2)C(=O)N1 [7b]	–	–	8 µg/mL (≈ 27.9 µM)	8 µg/mL (≈ 27.9 µM)	4 µg/mL (≈ 13.9 µM)	8 µg/mL (≈ 27.9 µM)	8 µg/mL (≈ 27.9 µM)	8 µg/mL (≈ 27.9 µM)	8 µg/mL (≈ 27.9 µM)	16 µg/mL (≈ 55.7 µM)	8.0 µg/mL (≈ 27.9 µM)	4.0 µg/mL (≈ 13.9 µM)	–	–	–	–
COc1ccccc1/C=C/C=C1C(=O)NC(=O)NC1=O [7c]	33.7 µM	more effective inhibitors	–	–	–	–	–	–	–	–	–	–	–	–	–	MBC (H. pylori [2]; 24 h, W.T 26695): 16 µg/mL (≈ 58.8 µM); MBC (H. pylori [2]; 24 h, clinical isolated strain v574): 16 µg/mL (≈ 58.8 µM); MBC (H. pylori [2]; 24 h, clinical isolated strain v633): 16 µg/mL (≈ 58.8 µM); MBC (H. pylori [2]; 24 h, clinical isolated strain v1086): 8 µg/mL (≈ 29.4 µM); MBC (H. pylori [2]; 24 h, clinical isolated strain v1254): 16 µg/mL (≈ 58.8 µM); MBC (H. pylori [2]; 24 h, clinical isolated strain v1267): 16 µg/mL (≈ 58.8 µM); MBC (H. pylori [2]; 24 h, clinical isolated strain v1354): 16 µg/mL (≈ 58.8 µM); MBC (H. pylori [2]; 24 h, clinical isolated strain v2311): 16 µg/mL (≈ 58.8 µM)
COc1ccc(/C=C/C=C2C(=O)NC(=O)NC2=O)cc1 [7d]	35.1 µM	more effective inhibitors	8 µg/mL (≈ 29.4 µM)	8 µg/mL (≈ 29.4 µM)	4 µg/mL (≈ 14.7 µM)	8 µg/mL (≈ 29.4 µM)	8 µg/mL (≈ 29.4 µM)	8 µg/mL (≈ 29.4 µM)	8 µg/mL (≈ 29.4 µM)	16 µg/mL (≈ 58.8 µM)	8.0 µg/mL (≈ 29.4 µM)	4.0 µg/mL (≈ 14.7 µM)	–	–	–	anti-bacterial activity toward H. pylori (in words) (H. pylori [2]): three most potent inhibitors
CSc1ccc(/C=C/C=C2C(=O)NC(=O)NC2=O)cc1 [7e]	22 µM and 11 to 22 µM	more effective inhibitors	8 µg/mL (≈ 27.7 µM)	8 µg/mL (≈ 27.7 µM)	8 µg/mL (≈ 27.7 µM)	8 µg/mL (≈ 27.7 µM)	8 µg/mL (≈ 27.7 µM)	8 µg/mL (≈ 27.7 µM)	8 µg/mL (≈ 27.7 µM)	8 µg/mL (≈ 27.7 µM)	8.0 µg/mL (≈ 27.7 µM)	–	2.67 µM	competitive inhibition	non-competitive or uncompetitive	anti-bacterial activity toward H. pylori (in words) (H. pylori [2]): three most potent inhibitors
COc1cccc(OC)c1/C=C/C=C1C(=O)NC(=O)NC1=O [7h]	–	more effective inhibitors	8 µg/mL (≈ 26.5 µM)	8 µg/mL (≈ 26.5 µM)	4 µg/mL (≈ 13.2 µM)	16 µg/mL (≈ 52.9 µM)	32 µg/mL (≈ 106 µM)	8 µg/mL (≈ 26.5 µM)	4 µg/mL (≈ 13.2 µM)	16 µg/mL (≈ 52.9 µM)	8.0 µg/mL (≈ 26.5 µM)	4.0 µg/mL (≈ 13.2 µM)	–	–	–	MBC value against H. pylori (H. pylori [2]; clinical isolated strain v1354): 4.0 µg/mL (≈ 13.2 µM)
COc1cc(/C=C/C=C2C(=O)NC(=O)NC2=O)cc(OC)c1 [7i]	20.3 µM and 11 to 22 µM	more effective inhibitors	8 µg/mL (≈ 26.5 µM)	8 µg/mL (≈ 26.5 µM)	4 µg/mL (≈ 13.2 µM)	8 µg/mL (≈ 26.5 µM)	32 µg/mL (≈ 106 µM)	8 µg/mL (≈ 26.5 µM)	4 µg/mL (≈ 13.2 µM)	16 µg/mL (≈ 52.9 µM)	8.0 µg/mL (≈ 26.5 µM)	4.0 µg/mL (≈ 13.2 µM)	3.81 µM	competitive inhibition	non-competitive or uncompetitive	MBC value against H. pylori (H. pylori [2]; clinical isolated strain v1354): 4.0 µg/mL (≈ 13.2 µM)
C=CCN1C(=O)C(=C/C=C/c2ccccc2)C(=O)N(CC=C)C1=O [25a, (E)-1,3-diallyl-5-(3-phenylallylidene)pyrimidine-2,4,6(1H,3H,5H)-trione]	11.4 µM and 11 to 22 µM	more effective inhibitors	8 µg/mL (≈ 24.8 µM)	8 µg/mL (≈ 24.8 µM)	16 µg/mL (≈ 49.6 µM)	8 µg/mL (≈ 24.8 µM)	8 µg/mL (≈ 24.8 µM)	8 µg/mL (≈ 24.8 µM)	8 µg/mL (≈ 24.8 µM)	8 µg/mL (≈ 24.8 µM)	8.0 µg/mL (≈ 24.8 µM)	–	2.01 µM	competitive inhibition	non-competitive or uncompetitive	anti-bacterial activity toward H. pylori (in words) (H. pylori [2]): three most potent inhibitors; MBC (H. pylori [4]): 6 µg/mL; MBC, single treatment (H. pylori [4]; v574 MTR-resistant strain): 6.0 µg/mL; MBC, single treatment (H. pylori [4]; v1086 CLR-resistant strain): 6.0 µg/mL
Cc1cc(C)cc(N2C(=O)NC(=O)/C(=C\C=C\c3ccccc3)C2=O)c1 [CB6010554]	–	–	10 µg/mL (≈ 28.9 µM)	–	–	–	–	–	–	–	10.0 µg/mL (≈ 28.9 µM)	–	–	–	–	–
C=CCN1C(=O)NC(=O)/C(=C/C=C/c2ccccc2)C1=O [CB6942859]	–	–	5 µg/mL (≈ 17.7 µM)	–	–	–	–	–	–	–	5.0 µg/mL (≈ 17.7 µM)	–	–	–	–	–
CC[C@H]1OC(=O)[C@H](C)[C@@H](O[C@H]2C[C@@](C)(OC)[C@@H](O)[C@H](C)O2)[C@H](C)[C@@H](O[C@@H]2O[C@H](C)C[C@H](N(C)C)[C@H]2O)[C@](C)(OC)C[C@@H](C)C(=O)[C@H](C)[C@@H](O)[C@]1(C)O [CLR, clarithromycin]	–	–	–	–	–	–	–	–	–	–	–	–	–	–	–	growth of resistant strain v1086 (in words) (H. pylori [4]; CLR 4 mg/L alone or with compound 25a 2 mg/L): cannot completely inhibit the growth; MBC (H. pylori [4]; 26695 wild type): < 1 µg/mL; MBC (H. pylori [4]; v574 MTR-resistant strain): < 1 µg/mL; MBC (H. pylori [4]; v1086 CLR-resistant strain): 8 µg/mL
Cc1ncc([N+](=O)[O-])n1CCO [MTR, metronidazole]	–	–	–	–	–	–	–	–	–	–	–	–	–	–	–	MBC (H. pylori [4]; 26695 wild type): < 1 µg/mL; MBC (H. pylori [4]; v574 MTR-resistant strain): 32 µg/mL; MBC (H. pylori [4]; v1086 CLR-resistant strain): < 1 µg/mL; growth of v574 strain (in words) (H. pylori [4]; MTR 16 mg/L alone or with compound 25a 2 mg/L): cannot suppressed the growth; dosage needed to inhibit strain v574 relative to compound 25a (H. pylori [4]; v574 metronidazole resistant strain): 5 times
O=C1NC(=O)C(=C/C=C/c2ccc(NC(=O)c3ccccc3)cc2)C(=O)N1 [compound 17, (E)-N-(4-(3-(2,4,6-trioxotetrahydropyrimidin-5(2H)-ylidene)prop-1-en-1-yl)phenyl)benzamide]	16.1 µM and 11 to 22 µM	more effective inhibitors	16 µg/mL (≈ 44.3 µM)	16 µg/mL (≈ 44.3 µM)	16 µg/mL (≈ 44.3 µM)	16 µg/mL (≈ 44.3 µM)	16 µg/mL (≈ 44.3 µM)	16 µg/mL (≈ 44.3 µM)	8 µg/mL (≈ 22.1 µM)	16 µg/mL (≈ 44.3 µM)	–	–	6.93 µM	competitive inhibition	non-competitive or uncompetitive	–
